Measured values published in paper PMC5073322, “Novel Natural Product-like Caged Xanthones Bearing a Carbamate Moiety Exhibit Antitumor Potency and Anti-Angiogenesis Activity In vivo” (Scientific Reports, 2016).
Converted amounts (≈) assume the structure as drawn. Read-outs that look alike come from different tables or passages of the source.

Assays:
A549/taxol = assay: MTT antiproliferative assay, Taxol-resistant A549; assay type: cell-based; details: 72 h, Taxol-resistant A549
Description: (§2) The inhibition of tumour cell growth was measured by a modified tetrazolium (MTT) salt assay, as previously described[39]. Cells were cultured in a 96-well plate and treated with culture medium alone or different concentrations of the compounds. The cells were incubated for 72 h, and then, the MTT assay reagent was added. After a 4 h incubation, the formazan product was quantitated at 570 nm. The IC50 values (the concentrations that gave rise to 50% inhibition of cell viability) were calculated using GraphPad Prism 6 using a variable slope (four parameters).

A549/cisplatin = assay: MTT antiproliferative assay, cisplatin-resistant A549; assay type: cell-based
Description: as §2

Water solubility by HPLC = assay type: physicochemical; details: for solubility: thermodynamic from solid
Excerpt: The physicochemical characteristics of compounds directly determine their potential drug-like properties. Assessing a compound’s physicochemical properties before performing in vivo evaluations can guide further studies and minimize the time and cost associated with drug discovery. Therefore, parallel to the in vivo study, these solubilities of these compounds in water were experimentally measured using high-performance liquid chromatography (HPLC). Based on the results of full wave scanning, 290 nm was chosen as the maximum absorption wavelength for HPLC detection.
(§1) A HPLC system with an ultraviolet (UV) detector was used to detect the solubility of the compounds. The optimal wavelength was 290 nm. Ethanol/water (85:15) was an efficient eluent at a flow rate of 0.5 mL/min. The compounds were stirred in deionized water overnight to maximize the retention of the compounds in solution. Then, the solutions were filtered and the supernatant was used as a fluid sample for HPLC detection. The permeability (Pe) of some of the compounds was tested with the help of a standard PAMPA (pION), as previously reported. PAMPA was performed on a PAMPA Explorer instrument (pION, Inc., Woburn, MA) with the PAMPA Explorer command software (Version 3.7.4.1). The compounds were diluted to 10 mM with the system solution buffer (pH 7.4). Then, 150 μL of the diluted compound solution was transferred to a UV plate, and the UV spectrum was collected and used as a reference. Then, paint the membrane with 5 μL of gastrointestinal tract (GIT) lipid. The acceptor chamber was filled with 200 μL of acceptor solution buffer, and the donor chamber was filled with 200 μL of diluted compound solution. The PAMPA sandwich was assembled and left at 25 °C for 4 h. The UV spectra (240–500 nm) from the donor and the acceptor were collected. The permeability coefficient was calculated with the PAMPA Explorer Command software (Version 3.7.4.1) based on the area under the curve (AUC) of the reference plate, the donor plate, and the acceptor plate. The permeability coefficient of the compound was tested for four times, and the data are shown as the average values. Ketoprofen (4.5×10^−6 cm/s) and propranolol (112.8×10^−6 cm/s) were used as the standards in this assay.

A549 = assay: MTT antiproliferative assay, A549
Description: as §2

HepG2 = assay: MTT antiproliferative assay, HepG2
Description: as §2

HCT116 = assay: MTT antiproliferative assay, HCT116
Description: as §2

MDA-MB-231 = assay: MTT antiproliferative assay, MDA-MB-231
Description: as §2

[1] = Parallel artificial membrane permeability assay (PAMPA); assay type: in vitro ADME; details: PAMPA standards, 25 °C, 4 h
Description: Permeability is another important property that reflects the ability of molecules to diffuse through cell membranes. The permeability coefficients were determined using a standard parallel artificial membrane permeability assay (PAMPA) on a PAMPA Explorer instrument (Pion, Inc., MA, USA)[34].
as §1, with “The compounds were diluted to 10 mM with the system solution buffer (pH 7.4).” left out

[2] = A549/Taxol, read-out: IC50 A549/taxol, MTT, 72 h
[3] = Homo sapiens, A549, 72 h, read-out: IC50 A549/cisplatin, MTT, 72 h
[4] = water, deionized water, stirred overnight, HPLC 290 nm, read-out: S, water solubility
[5] = Homo sapiens, A549, 72 h, read-out: IC50 A549, MTT, 72 h
[6] = Homo sapiens, HepG2, 72 h, read-out: IC50 HepG2, MTT, 72 h
[7] = Homo sapiens, HCT-116, 72 h, read-out: IC50 HCT116, MTT, 72 h
[8] = Homo sapiens, MDA-MB-231, 72 h, read-out: IC50 MDA-MB-231, MTT, 72 h
[9] = Homo sapiens, MTT, 72 h, read-out: IC50 A549/cisplatin
[10] = deionized water, stirred overnight, HPLC 290 nm, read-out: S, water solubility
[11] = Homo sapiens, A549, 72 h, read-out: IC50 A549
[12] = Homo sapiens, HepG2, 72 h, read-out: IC50 HepG2
[13] = Homo sapiens, HCT-116, 72 h, read-out: IC50 HCT116
[14] = Homo sapiens, MDA-MB-231, 72 h, read-out: IC50 MDA-MB-231
[15] = read-out: IC50 A549/cisplatin, MTT, 72 h
[16] = deionized water, stirred overnight, HPLC 290 nm
[17] = read-out: IC50 HepG2, MTT, 72 h

| Structure (SMILES) | IC50 (A549/taxol; MTT, read-out: IC50 A549/taxol) | IC50 (A549/cisplatin; [9]) | solubility (Water solubility by HPLC; [10]) | IC50 (A549; [11]) | IC50 (HepG2; [12]) | IC50 (HCT116; [13]) | IC50 (MDA-MB-231; [14]) | also measured |
| --- | --- | --- | --- | --- | --- | --- | --- | --- |
| CC(C)=CCC12OC(C)(C)C3CC(C=C4C(=O)c5c(OC(=O)N(C)C)cccc5OC431)C2=O (stereo not drawn) [Compound 8a] |  |  |  |  |  |  |  | IC50 (A549/taxol; [2]): 650 ± 80 nM; IC50 (A549/cisplatin; [3]): 1100 ± 100 nM; solubility (Water solubility by HPLC; [4]): 60 µM (≈ 27.1 µg/mL); IC50 (A549; [5]): 3090 ± 140 nM; IC50 (HepG2; [6]): 1730 ± 430 nM; IC50 (HCT116; [7]): 2320 ± 210 nM; IC50 (MDA-MB-231; [8]): 170 ± 40 nM |
| CC(C)=CCC12OC(C)(C)C3CC(C=C4C(=O)c5c(OC(=O)N(CCO)CCO)cccc5OC431)C2=O (stereo not drawn) [Compound 8j] | 4250 ± 700 nM | 3780 ± 110 nM | 60 µM (≈ 30.7 µg/mL) | 10240 ± 100 nM | 5210 ± 10 nM | 4140 ± 50 nM | 6200 ± 110 nM |  |
| CC(C)=CCC12OC(C)(C)C3CC(C=C4C(=O)c5c(OC(=O)N6CCN(C)CC6)cccc5OC431)C2=O (stereo not drawn) [Compound 8o] |  |  |  |  |  |  |  | IC50 (A549/taxol; read-out: IC50 A549/taxol, MTT): 510 ± 50 nM; IC50 (A549/cisplatin; [15]): 1140 ± 140 nM; S, water solubility (Water solubility by HPLC; [16]): >40000 µM; IC50 (A549; read-out: IC50 A549, MTT, 72 h): 14900 ± 3600 nM; IC50 (HepG2; [17]): 2800 ± 210 nM; IC50 (HCT116; read-out: IC50 HCT116, MTT, 72 h): 9820 ± 680 nM; IC50 (MDA-MB-231; read-out: IC50 MDA-MB-231, MTT, 72 h): 660 ± 70 nM |
| CC(C)=CCC12OC(C)(C)C3CC(C=C4C(=O)c5c(cccc5OS(C)(=O)=O)OC431)C2=O (stereo not drawn) [Compound 2] |  |  | 20 µM (≈ 9.17 µg/mL) |  | 1410 ± 60 nM | 2120 ± 140 nM | 2000 ± 70 nM |  |
| CC(C)=CCC12OC(C)(C)C3CC(C=C4C(=O)c5c(OC(=O)N(C(C)C)C(C)C)cccc5OC431)C2=O (stereo not drawn) [Compound 8k] | 6720 ± 530 nM | 2000 ± 470 nM | 30 µM (≈ 15.2 µg/mL) | 8960 ± 900 nM | 4760 ± 220 nM | 4490 ± 770 nM | 9100 ± 120 nM |  |
| CC(C)=CCC12OC(C)(C)C3CC(C=C4C(=O)c5c(OC(=O)N6CCN(C)CC6)cccc5OC431)C2=O (stereo not drawn) [Compound 8m] |  |  |  |  |  |  |  | IC50 (A549/taxol; read-out: IC50 A549/taxol, MTT): 1100 ± 50 nM; IC50 (A549/cisplatin; [15]): 380 ± 70 nM; S, water solubility (Water solubility by HPLC; [16]): 640 µM; IC50 (A549; [5]): 9970 ± 2460 nM; IC50 (HepG2; [17]): 1360 ± 710 nM; IC50 (HCT116; [7]): 8150 ± 700 nM; IC50 (MDA-MB-231; [8]): 760 ± 90 nM |
| COc1cccc2c1C(=O)c1c(O)c3c(c(O)c1C2=O)C[C@@](O)(C(=O)CO)C[C@@H]3O[C@H]1C[C@H](N)[C@H](O)[C@H](C)O1 [Doxorubicin, reference compound] | 240 ± 20 nM | 190 ± 20 nM |  | 170 ± 20 nM | 280 ± 10 nM | 400 ± 40 nM | 490 ± 50 nM |  |
| CC(C)NCC(O)COc1cccc2ccccc12 (stereo not drawn) [propranolol, reference compound] |  |  |  |  |  |  |  | permeability coefficient (Pe) [1]: 112.8 ×10⁻⁶ cm/s |
| CCOC(=O)COc1cccc2c1C(=O)C1=CC3CC4C(C)(C)OC(CC=C(C)C)(C3=O)C14O2 (stereo not drawn) [Compound 4] |  |  | 10 µM (≈ 4.67 µg/mL) |  | 12700 ± 970 nM | 8130 ± 730 nM | 5420 ± 570 nM |  |
| CC(C)=CCC[C@]1(C)C=Cc2c(O)c3c(c(CC=C(C)C)c2O1)O[C@]12C(=C[C@@H]4C[C@H]1C(C)(C)O[C@@]2(C/C=C(/C)C(=O)O)C4=O)C3=O [GA, gambogic acid, reference compound] | 290 ± 40 nM | 2500 ± 60 nM |  | 2020 ± 20 nM | 2080 ± 70 nM | 340 ± 80 nM | 1500 ± 50 nM | solubility (Water solubility by HPLC; water): < 5 µM |
| CC(C)=CCC12OC(C)(C)C3CC(C=C4C(=O)c5c(OCC(=O)O)cccc5OC431)C2=O (stereo not drawn) [Compound 5] |  |  | 30 µM (≈ 13.2 µg/mL) |  | > 10000 nM | > 10000 nM | > 10000 nM |  |
| CC(C(=O)O)c1cccc(C(=O)c2ccccc2)c1 (stereo not drawn) [Ketoprofen, reference compound] |  |  |  |  |  |  |  | permeability coefficient (Pe) [1]: 4.5 ×10⁻⁶ cm/s |
| CCN(C)C(=O)Oc1cccc2c1C(=O)C1=CC3CC4C(C)(C)OC(CC=C(C)C)(C3=O)C14O2 (stereo not drawn) [Compound 8c] |  |  |  |  |  |  |  | IC50 (A549/taxol; [2]): 660 ± 160 nM; IC50 (A549/cisplatin; [3]): 1480 ± 140 nM; solubility (Water solubility by HPLC; [4]): 30 µM (≈ 14 µg/mL); IC50 (A549; [5]): 3050 ± 580 nM; IC50 (HepG2; [6]): 2560 ± 190 nM; IC50 (HCT116; [7]): 2750 ± 140 nM; IC50 (MDA-MB-231; [8]): 250 ± 120 nM |

The next lines start with results.

| IC50 (A549/taxol; MTT, read-out: IC50 A549/taxol) | IC50 (A549/cisplatin; [9]) | solubility (Water solubility by HPLC; [10]) | IC50 (A549; [11]) | IC50 (HepG2; [12]) | IC50 (HCT116; [13]) | IC50 (MDA-MB-231; [14]) | Structure (SMILES) | also measured |
| --- | --- | --- | --- | --- | --- | --- | --- | --- |
| 1100 ± 160 nM | 6700 ± 180 nM | 20 µM (≈ 9.51 µg/mL) | 8450 ± 200 nM | 1750 ± 280 nM | 3150 ± 220 nM | 6800 ± 700 nM | CC(C)=CCC12OC(C)(C)C3CC(C=C4C(=O)c5c(OC(=O)N6CC=CC6)cccc5OC431)C2=O (stereo not drawn) [Compound 8h] |  |
| 1450 ± 180 nM | 2980 ± 170 nM | 50 µM (≈ 24.6 µg/mL) | 2930 ± 20 nM | 950 ± 90 nM | 1020 ± 70 nM | 870 ± 160 nM | CC(C)=CCC12OC(C)(C)C3CC(C=C4C(=O)c5c(OC(=O)N6CCCCC6)cccc5OC431)C2=O (stereo not drawn) [Compound 8f] |  |
| 12400 ± 290 nM | 5680 ± 150 nM | 40 µM (≈ 19.1 µg/mL) | 8630 ± 190 nM | 990 ± 10 nM | 1060 ± 90 nM | 4400 ± 1500 nM | CC(C)=CCC12OC(C)(C)C3CC(C=C4C(=O)c5c(OC(=O)N6CCCC6)cccc5OC431)C2=O (stereo not drawn) [Compound 8e] |  |
